Measured values from US11230543B2, “Biaryl monobactam compounds and methods of use thereof for the treatment of bacterial infections” (priority 2015, dated 2022).
Where a name gives a salt, the structure may show the parent alone.

What was measured:
[1] = test system: Pseudomonas aeruginosa expressing AmpC (CL5701); experiment: Antibiotic activity: growth inhibitory concentration (OD600), Pseudomonas aeruginosa CL5701; format: cell-based; conditions: lowest concentration inhibiting 95% of bacterial growth; in the presence of β lactamase inhibitor Relebactam 4 μg/mL; 35±2° C. for 22 hours; tested range 100 μM to 0.098 μM
Method: (§1) Antibiotic Activity: Determination of Growth Inhibitory Concentration
(§2) The concentrations of compounds required to inhibit the growth of various strains of bacteria were determined in an assay that assessed bacterial growth by measuring optical density at 600 nm (OD600). The bacterial strains tested included the clinical strains Escherichia coli expressing NDM-1 (CLB30016), Klebsiella pneumoniae expressing KPC-1 (CL6569), Acinetobacter baumannii expressing TEM-1, AmpC, and Oxa-24/40 (CL6188) and Pseudomonas aeruginosa expressing AmpC (CL5701). All compounds were tested in the presence of a β lactamase inhibitor (BLi, Relebactam) in 384-well microplates. The clinical strains were stored as frozen single use stocks, thawed and diluted into 1.1× cation-adjusted Mueller-Hinton II broth to achieve approximately 2×10^5 CFU/mL. Test compounds were dissolved in DMSO and diluted 1:50 in the assay, resulting in a final concentration range of 100 μM to 0.098 μM. On the day of the assay, 1 μL of test compound was added to the plate followed by 4 μL of 50 μg/mL BLi in MOPS buffer and 45 μL of diluted bacteria. Plates were centrifuged at 1000 rpm for 30 seconds, shaken at approximately 800 rpm for 1 minute, and incubated at 35±2° C. for 22 hours. The concentration of BLi used in the assay was 4 μg/mL. At the end of the incubation, absorbance at 600 nm was determined using a spectrophotometer. Inhibition was quantitated by identifying the lowest concentration of test compound that was required to inhibit 95% of the growth of the bacteria. The results for Examples 1-126 are reported in Table I, expressed as the concentration of compound that inhibited 95% of bacterial growth (Minimum Inhibitory Threshold Concentration; MITC95).

[2] = test system: Klebsiella pneumoniae expressing KPC-1 (CL6569); experiment: Antibiotic activity: growth inhibitory concentration (OD600), Klebsiella pneumoniae CL6569; format: cell-based; conditions: lowest concentration inhibiting 95% of bacterial growth; in the presence of β lactamase inhibitor Relebactam 4 μg/mL; 35±2° C. for 22 hours; tested range 100 μM to 0.098 μM
Method: as §1, §2

Row | SMILES | PA_CL5701 MITC95 [1] [µM] | KP_CL6569 MITC95 [2] [µM]
1 | C[C@@H]1[C@H](NC(=O)/C(=N\O[C@@H](COc2ccc(-c3cn(CCCN)[n+](C)c3)cc2)C(=O)O)c2csc(N)n2)C(=O)N1S(=O)(=O)[O-] [Example 9, (2R,3S)-3-((Z)-2-(((S)-2-(4-(1-(3-aminopropyl)-2-methyl-1H-pyrazol-2-ium-4-yl)phenoxy)-1-carboxyethoxy)imino)-2-(2-aminothiazol-4-yl)acetamido)-2-methyl-4-oxoazetidine-1-sulfonate] | 6.25 | 0.3906
2 | CC1(C)[C@H](NC(=O)/C(=N\O[C@@H](COc2ccc(-c3cn(CCCN)cn3)cc2)C(=O)O)c2csc(N)n2)C(=O)N1OS(=O)(=O)O [Example 10, (S)-3-(4-(1-(3-Aminopropyl)-1H-imidazol-4-yl)phenoxy)-2-((((Z)-1-(2-aminothiazol-4-yl)-2-(((S)-2,2-dimethyl-4-oxo-1-(sulfooxy)azetidin-3-yl)amino)-2-oxoethylidene)amino)oxy)propanoic acid] | 6.25 | 0.3906
3 | C[n+]1cc(-c2ccc(OC[C@H](O/N=C(\C(=O)N[C@@H]3C(=O)N(OS(=O)(=O)[O-])C3(C)C)c3nc(N)sc3Cl)C(=O)O)cc2)cn1CCCN [Example 11, (S)-3-((Z)-2-(2-Amino-5-chlorothiazol-4-yl)-2-(((S)-2-(4-(1-(3-aminopropyl)-2-methyl-1H-pyrazol-2-ium-4-yl)phenoxy)-1-carboxyethoxy)imino)acetamido)-2,2-dimethyl-4-oxoazetidin-1-yl sulfate] | 3.125 | 0.7813
4 | C[n+]1cc(-c2ccc(OC[C@H](O/N=C(\C(=O)N[C@@H]3C(=O)N(OS(=O)(=O)[O-])C3(C)C)c3nsc(N)n3)C(=O)O)cc2)cn1CCCN [Example 12, (S)-3-((Z)-2-(5-Amino-1,2,4-thiadiazol-3-yl)-2-(((S)-2-(4-(1-(3-aminopropyl)-2-methyl-1H-pyrazol-2-ium-4-yl)phenoxy)-1-carboxyethoxy)imino)acetamido)-2,2-dimethyl-4-oxoazetidin-1-yl sulfate] | 3.125 | 0.3906
5 | CC1(C)[C@H](NC(=O)/C(=N\O[C@@H](COc2ccc(-c3cnn(CCCN)c3)nc2)C(=O)O)c2csc(N)n2)C(=O)N1OS(=O)(=O)O.O=C(O)C(F)(F)F [Example 13, 3-(4-(5-((S)-2-((((Z)-1-(2-aminothiazol-4-yl)-2-(((S)-2,2-dimethyl-4-oxo-1-(sulfooxy)azetidin-3-yl)amino)-2-oxo-ethylidene)amino)oxy)-2-carboxyethoxy)pyridin-2-yl)-1H-pyrazol-1-yl)propan-1-aminium 2,2,2-trifluoroacetate] | 12.5 | 0.7813
6 | CC1(C)[C@H](NC(=O)/C(=N\O[C@@H](COc2ccc(-c3cnn(CC[N+]4(C)CCOCC4)c3)cc2)C(=O)O)c2csc(N)n2)C(=O)N1OS(=O)(=O)O.O=C([O-])C(F)(F)F [Example 14, 4-(2-(4-(4-((S)-2-((((Z)-1-(2-aminothiazol-4-yl)-2-(((S)-2,2-dimethyl-4-oxo-1-(sulfooxy)azetidin-3-yl)amino)-2-oxoethylidene)amino)oxy)-2-carboxyethoxy)phenyl)-1H-pyrazol-1-yl)ethyl)-4-methylmorpholin-4-ium 2,2,2-trifluoroacetate] | 12.5 | 0.7813
7 | C[n+]1cc(-c2ccc(OC[C@H](O/N=C(\C(=O)N[C@@H]3C(=O)N(OS(=O)(=O)O)C3(C)C)c3csc(N)n3)C(=O)O)c(F)c2)cn1CCCN [Example 15, 1-(3-aminopropyl)-4-(4-((S)-2-((((Z)-1-(2-aminothiazol-4-yl)-2-(((S)-2,2-dimethyl-4-oxo-1-(sulfooxy)azetidin-3-yl)amino)-2-oxo-ethylidene)amino)oxy)-2-carboxyethoxy)-3-fluorophenyl)-2-methyl-1H-pyrazol-2-ium, TFA salt (1:1)] | 6.25 | 0.3906
8 | C[n+]1cc(-c2ccc(OC[C@H](O/N=C(\C(=O)N[C@@H]3C(=O)N(OS(=O)(=O)[O-])C3(C)C)c3csc(N)n3)C(=O)O)cc2)cn1CC1CNC1 [Example 16, (S)-3-((Z)-2-(2-aminothiazol-4-yl)-2-(((S)-2-(4-(1-(azetidin-3-ylmethyl)-2-methyl-1H-pyrazol-2-ium-4-yl)phenoxy)-1-carboxy-ethoxy)imino)acetamido)-2,2-dimethyl-4-oxoazetidin-1-yl sulfate] | 3.125 | 0.3906
9 | C[n+]1cc(-c2ccc(OC[C@H](O/N=C(\C(=O)N[C@@H]3C(=O)N(OS(=O)(=O)[O-])C3(C)C)c3csc(N)n3)C(=O)O)cc2)cn1CCN [Example 17, (S)-3-((Z)-2-(((S)-2-(4-(1-(2-aminoethyl)-2-methyl-1H-pyrazol-2-ium-4-yl)phenoxy)-1-carboxyethoxy)imino)-2-(2-aminothiazol-4-yl)acetamido)-2,2-dimethyl-4-oxoazetidin-1-yl sulfate] | 6.25 | 0.3906
10 | C[n+]1c(-c2ccc(OC[C@H](O/N=C(\C(=O)N[C@@H]3C(=O)N(OS(=O)(=O)O)C3(C)C)c3csc(N)n3)C(=O)O)cc2)ccn1CCCN.O=C([O-])C(F)(F)F [Example 18, 1-(3-aminopropyl)-3-(4-((S)-2-((((Z)-1-(2-aminothiazol-4-yl)-2-(((S)-2,2-dimethyl-4-oxo-1-(sulfooxy)azetidin-3-yl)amino)-2-oxo-ethylidene)amino)oxy)-2-carboxyethoxy)phenyl)-2-methyl-1H-pyrazol-2-ium 2,2,2-trifluoroacetate] | 6.25 | 0.3906
11 | Cc1cn(CCCN)[n+](C)c1-c1ccc(OC[C@H](O/N=C(\C(=O)N[C@@H]2C(=O)N(OS(=O)(=O)O)C2(C)C)c2csc(N)n2)C(=O)O)cc1.O=C([O-])C(F)(F)F [Example 19, 1-(3-aminopropyl)-3-(4-((S)-2-((((Z)-1-(2-aminothiazol-4-yl)-2-(((S)-2,2-dimethyl-4-oxo-1-(sulfooxy)azetidin-3-yl)amino)-2-oxo-ethylidene)amino)oxy)-2-carboxyethoxy)phenyl)-2,4-dimethyl-1H-pyrazol-2-ium 2,2,2-trifluoroacetate] | 12.5 | 0.7813
12 | Cc1c(-c2ccc(OC[C@H](O/N=C(\C(=O)N[C@@H]3C(=O)N(OS(=O)(=O)O)C3(C)C)c3csc(N)n3)C(=O)O)cc2)c(C)[n+](C)n1CCCN.O=C([O-])C(F)(F)F [Example 20, 1-(3-aminopropyl)-4-(4-((S)-2-((((Z)-1-(2-aminothiazol-4-yl)-2-(((S)-2,2-dimethyl-4-oxo-1-(sulfooxy)azetidin-3-yl)amino)-2-oxo-ethylidene)amino)oxy)-2-carboxyethoxy)phenyl)-2,3,5-trimethyl-1H-pyrazol-2-ium 2,2,2-trifluoroacetate] | 6.25 | 0.3906
13 | Cc1cc(-c2ccc(OC[C@H](O/N=C(\C(=O)N[C@@H]3C(=O)N(OS(=O)(=O)O)C3(C)C)c3csc(N)n3)C(=O)O)cc2)n(CCCN)[n+]1C.O=C([O-])C(F)(F)F [Example 21, 1-(3-aminopropyl)-5-(4-((S)-2-((((Z)-1-(2-aminothiazol-4-yl)-2-(((S)-2,2-dimethyl-4-oxo-1-(sulfooxy)azetidin-3-yl)amino)-2-oxo-ethylidene)amino)oxy)-2-carboxyethoxy)phenyl)-2,3-dimethyl-1H-pyrazol-2-ium 2,2,2-trifluoroacetate] | 12.5 | 0.3906
14 | Cc1cc(-c2ccc(OC[C@H](O/N=C(\C(=O)N[C@@H]3C(=O)N(OS(=O)(=O)O)C3(C)C)c3csc(N)n3)C(=O)O)cc2)[n+](C)n1CCCN.O=C([O-])C(F)(F)F [Example 22, 1-(3-aminopropyl)-3-(4-((S)-2-((((Z)-1-(2-aminothiazol-4-yl)-2-(((S)-2,2-dimethyl-4-oxo-1-(sulfooxy)azetidin-3-yl)amino)-2-oxo-ethylidene)amino)oxy)-2-carboxyethoxy)phenyl)-2,5-dimethyl-1H-pyrazol-2-ium 2,2,2-trifluoroacetate] | 25 | 0.7813
15 | C[n+]1cc(-c2ccc(OC[C@H](O/N=C(\C(=O)N[C@@H]3C(=O)N(OS(=O)(=O)O)C3(C)C)c3csc(N)n3)C(=O)O)cc2F)cn1CCCN [Example 24, (S)-3-((Z)-2-(((S)-2-(4-(1-(3-aminopropyl)-2-methyl-1H-pyrazol-2-ium-4-yl)-3-fluorophenoxy)-1-carboxyethoxy)imino)-2-(2-aminothiazol-4-yl)acetamido)-2,2-dimethyl-4-oxoazetidin-1-yl sulfate] | 3.125 | 0.3906
